Experimental data reported in ChEMBL document CHEMBL5291721, “A preclinical secondary pharmacology resource illuminates target-adverse drug reaction associations of marketed drugs” (Nat Commun, 2023).

Key:
[1] = biological target: T1, 5-hydroxytryptamine receptor 2B (Homo sapiens, UniProt P41595); assay type: functional, cell-based
[2] = biological target: T2, Prostaglandin G/H synthase 1 (Rattus norvegicus, UniProt Q63921); assay type: functional
T2 sequence (Q63921 whole entry): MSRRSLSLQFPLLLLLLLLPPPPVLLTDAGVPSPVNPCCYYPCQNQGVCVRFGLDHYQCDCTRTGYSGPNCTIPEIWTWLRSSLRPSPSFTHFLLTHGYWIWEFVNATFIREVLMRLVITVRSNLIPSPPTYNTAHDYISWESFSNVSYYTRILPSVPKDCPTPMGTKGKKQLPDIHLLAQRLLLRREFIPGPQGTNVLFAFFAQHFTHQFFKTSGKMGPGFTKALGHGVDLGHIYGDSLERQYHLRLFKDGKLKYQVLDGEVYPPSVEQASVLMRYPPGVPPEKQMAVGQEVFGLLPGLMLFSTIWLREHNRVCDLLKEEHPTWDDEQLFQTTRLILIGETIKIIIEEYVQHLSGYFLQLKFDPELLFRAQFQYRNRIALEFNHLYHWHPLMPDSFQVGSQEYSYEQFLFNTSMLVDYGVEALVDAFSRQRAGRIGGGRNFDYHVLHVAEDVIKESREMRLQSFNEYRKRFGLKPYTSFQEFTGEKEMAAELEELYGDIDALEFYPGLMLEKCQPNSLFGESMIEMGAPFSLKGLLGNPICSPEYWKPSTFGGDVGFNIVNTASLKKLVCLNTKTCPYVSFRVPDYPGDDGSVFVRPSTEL

Cannabinoid receptor 1 = Cannabinoid receptor 1 (Homo sapiens, UniProt P21554); assay type: functional, cell-based
Histamine H3 receptor = Histamine H3 receptor (Homo sapiens, UniProt Q9Y5N1)
[3] = biological target: Glutamate receptor ionotropic, NMDA 1 (Rattus norvegicus, UniProt P35439)
[4] = biological target: T1, 5-hydroxytryptamine receptor 2B; assay type: functional, cell-based; remark: listed apart in the source
D(1A) dopamine receptor = D(1A) dopamine receptor (Homo sapiens, UniProt P21728); assay type: functional, cell-based
[5] = biological target: T3, Gastrin/cholecystokinin type B receptor (Homo sapiens, UniProt P32239)
T3 sequence (P32239 whole entry): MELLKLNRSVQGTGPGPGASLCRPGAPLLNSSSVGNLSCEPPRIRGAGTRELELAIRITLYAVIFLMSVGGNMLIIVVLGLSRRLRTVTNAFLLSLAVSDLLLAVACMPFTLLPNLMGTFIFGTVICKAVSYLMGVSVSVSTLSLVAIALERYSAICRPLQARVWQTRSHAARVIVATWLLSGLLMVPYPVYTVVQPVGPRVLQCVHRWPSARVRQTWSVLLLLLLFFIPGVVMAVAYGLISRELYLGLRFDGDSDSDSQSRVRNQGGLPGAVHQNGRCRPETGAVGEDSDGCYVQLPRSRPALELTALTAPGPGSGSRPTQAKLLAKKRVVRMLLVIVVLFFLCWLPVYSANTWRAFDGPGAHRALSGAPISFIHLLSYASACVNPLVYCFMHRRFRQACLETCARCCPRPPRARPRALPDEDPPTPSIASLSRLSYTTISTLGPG

[6] = biological target: Sodium-dependent dopamine transporter (Homo sapiens, UniProt Q01959)
[7] = biological target: T4, Type-1 angiotensin II receptor (Homo sapiens, UniProt P30556)
T4 sequence (P30556 whole entry): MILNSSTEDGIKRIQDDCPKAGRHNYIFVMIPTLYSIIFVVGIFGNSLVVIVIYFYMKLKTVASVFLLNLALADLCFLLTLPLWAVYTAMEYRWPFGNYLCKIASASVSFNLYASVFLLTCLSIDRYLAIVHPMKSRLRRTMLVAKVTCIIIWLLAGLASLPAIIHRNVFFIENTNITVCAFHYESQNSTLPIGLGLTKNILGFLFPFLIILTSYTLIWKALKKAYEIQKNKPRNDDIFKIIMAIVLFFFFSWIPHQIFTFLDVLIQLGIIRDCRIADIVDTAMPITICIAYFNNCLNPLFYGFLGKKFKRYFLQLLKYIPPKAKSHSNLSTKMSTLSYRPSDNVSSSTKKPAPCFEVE

Progesterone receptor = biological target: T5, Progesterone receptor (Homo sapiens, UniProt P06401); assay type: functional
T5 sequence (P06401 whole entry): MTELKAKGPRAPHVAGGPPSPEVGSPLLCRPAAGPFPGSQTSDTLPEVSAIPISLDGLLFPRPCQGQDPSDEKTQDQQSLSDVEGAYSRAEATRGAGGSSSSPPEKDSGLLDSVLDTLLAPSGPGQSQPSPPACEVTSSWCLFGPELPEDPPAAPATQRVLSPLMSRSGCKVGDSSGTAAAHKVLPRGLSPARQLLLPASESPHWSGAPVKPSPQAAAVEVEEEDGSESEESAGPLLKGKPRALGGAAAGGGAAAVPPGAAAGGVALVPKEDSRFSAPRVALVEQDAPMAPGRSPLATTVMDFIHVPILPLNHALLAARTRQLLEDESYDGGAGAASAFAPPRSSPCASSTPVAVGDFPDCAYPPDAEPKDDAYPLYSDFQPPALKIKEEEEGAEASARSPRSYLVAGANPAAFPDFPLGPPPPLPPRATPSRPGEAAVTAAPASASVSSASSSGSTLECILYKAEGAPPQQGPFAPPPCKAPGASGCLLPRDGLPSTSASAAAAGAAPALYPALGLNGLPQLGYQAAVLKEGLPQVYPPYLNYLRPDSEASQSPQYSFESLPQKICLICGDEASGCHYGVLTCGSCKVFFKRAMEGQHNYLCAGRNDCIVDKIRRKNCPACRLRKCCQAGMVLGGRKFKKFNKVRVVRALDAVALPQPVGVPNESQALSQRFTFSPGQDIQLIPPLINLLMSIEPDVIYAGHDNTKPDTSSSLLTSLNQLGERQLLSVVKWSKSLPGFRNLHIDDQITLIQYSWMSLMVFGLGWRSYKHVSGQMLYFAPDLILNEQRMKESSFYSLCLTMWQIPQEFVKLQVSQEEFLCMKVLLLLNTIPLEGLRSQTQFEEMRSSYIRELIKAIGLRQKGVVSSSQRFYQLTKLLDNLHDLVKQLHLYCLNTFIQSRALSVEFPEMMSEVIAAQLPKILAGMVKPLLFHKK
Note: assay procedure not described here.

Sodium-dependent dopamine transporter, sequence (Q01959 whole entry): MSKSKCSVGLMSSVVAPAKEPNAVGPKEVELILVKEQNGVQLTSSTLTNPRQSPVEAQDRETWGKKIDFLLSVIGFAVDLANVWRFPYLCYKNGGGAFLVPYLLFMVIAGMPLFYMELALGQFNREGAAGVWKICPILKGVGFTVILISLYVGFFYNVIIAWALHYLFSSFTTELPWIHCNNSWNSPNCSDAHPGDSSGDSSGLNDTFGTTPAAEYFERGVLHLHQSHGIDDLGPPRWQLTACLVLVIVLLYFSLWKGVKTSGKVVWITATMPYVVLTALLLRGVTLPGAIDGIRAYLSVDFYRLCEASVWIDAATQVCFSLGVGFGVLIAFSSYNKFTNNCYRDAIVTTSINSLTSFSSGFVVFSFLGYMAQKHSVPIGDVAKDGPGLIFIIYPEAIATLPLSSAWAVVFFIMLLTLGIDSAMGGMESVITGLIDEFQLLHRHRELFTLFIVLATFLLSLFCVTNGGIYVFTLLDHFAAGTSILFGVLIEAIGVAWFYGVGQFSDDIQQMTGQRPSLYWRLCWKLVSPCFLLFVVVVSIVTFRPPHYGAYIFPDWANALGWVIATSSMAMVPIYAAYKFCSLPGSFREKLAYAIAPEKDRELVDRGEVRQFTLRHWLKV
Cannabinoid receptor 1, sequence (P21554 whole entry): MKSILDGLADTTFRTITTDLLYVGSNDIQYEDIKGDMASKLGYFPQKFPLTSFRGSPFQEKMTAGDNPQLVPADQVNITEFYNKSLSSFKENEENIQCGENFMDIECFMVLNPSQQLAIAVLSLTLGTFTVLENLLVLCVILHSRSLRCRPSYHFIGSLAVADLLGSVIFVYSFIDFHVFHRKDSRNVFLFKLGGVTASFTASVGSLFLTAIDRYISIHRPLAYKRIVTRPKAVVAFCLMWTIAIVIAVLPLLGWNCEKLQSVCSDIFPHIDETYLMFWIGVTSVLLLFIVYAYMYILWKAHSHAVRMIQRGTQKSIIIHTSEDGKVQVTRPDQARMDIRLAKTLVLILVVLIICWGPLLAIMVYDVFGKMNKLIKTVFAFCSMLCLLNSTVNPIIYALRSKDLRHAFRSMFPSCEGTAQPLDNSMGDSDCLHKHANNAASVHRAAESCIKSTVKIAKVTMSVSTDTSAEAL
Histamine H3 receptor, sequence (Q9Y5N1 whole entry): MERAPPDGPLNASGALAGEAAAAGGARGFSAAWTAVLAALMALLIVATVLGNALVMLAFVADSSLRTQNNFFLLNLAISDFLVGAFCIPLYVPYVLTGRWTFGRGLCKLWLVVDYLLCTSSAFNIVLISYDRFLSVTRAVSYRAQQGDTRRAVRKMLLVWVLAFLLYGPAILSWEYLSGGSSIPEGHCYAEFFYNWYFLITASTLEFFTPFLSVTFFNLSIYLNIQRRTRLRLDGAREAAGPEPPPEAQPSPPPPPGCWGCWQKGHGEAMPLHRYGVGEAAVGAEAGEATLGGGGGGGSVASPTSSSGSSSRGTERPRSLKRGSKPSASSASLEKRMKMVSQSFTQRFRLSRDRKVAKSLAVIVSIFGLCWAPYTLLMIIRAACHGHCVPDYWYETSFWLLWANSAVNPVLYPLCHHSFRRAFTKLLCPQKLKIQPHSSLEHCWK
T1 sequence (P41595 whole entry): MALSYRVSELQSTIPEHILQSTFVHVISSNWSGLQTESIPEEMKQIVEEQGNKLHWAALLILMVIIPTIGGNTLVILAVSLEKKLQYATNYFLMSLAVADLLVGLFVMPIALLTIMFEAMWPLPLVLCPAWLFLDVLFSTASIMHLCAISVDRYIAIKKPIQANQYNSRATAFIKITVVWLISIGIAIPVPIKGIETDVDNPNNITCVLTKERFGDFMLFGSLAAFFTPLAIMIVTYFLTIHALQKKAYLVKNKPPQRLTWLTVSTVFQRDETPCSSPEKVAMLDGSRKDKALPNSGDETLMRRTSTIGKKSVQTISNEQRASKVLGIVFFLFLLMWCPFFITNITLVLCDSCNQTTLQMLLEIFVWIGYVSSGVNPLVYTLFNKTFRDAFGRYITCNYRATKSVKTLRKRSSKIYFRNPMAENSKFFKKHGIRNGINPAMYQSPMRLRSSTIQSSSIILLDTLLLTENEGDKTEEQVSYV
D(1A) dopamine receptor, sequence (P21728 whole entry): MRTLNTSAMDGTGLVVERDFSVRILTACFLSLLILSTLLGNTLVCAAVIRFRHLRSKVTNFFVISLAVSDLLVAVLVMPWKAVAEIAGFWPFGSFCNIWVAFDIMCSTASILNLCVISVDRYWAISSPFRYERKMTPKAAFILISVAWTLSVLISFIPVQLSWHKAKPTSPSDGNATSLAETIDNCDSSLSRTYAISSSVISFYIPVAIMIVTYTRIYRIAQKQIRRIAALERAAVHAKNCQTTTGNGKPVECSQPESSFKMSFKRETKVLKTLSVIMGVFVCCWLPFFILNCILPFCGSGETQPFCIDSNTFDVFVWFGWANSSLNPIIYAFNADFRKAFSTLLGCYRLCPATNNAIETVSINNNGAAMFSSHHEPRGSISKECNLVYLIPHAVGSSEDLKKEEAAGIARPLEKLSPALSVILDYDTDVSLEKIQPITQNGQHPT

| SMILES | AC50 [1] [µM] | AC50 [2] [µM] | AC50 (Cannabinoid receptor 1) [µM] | AC50 (Histamine H3 receptor) [µM] | AC50 [3] [µM] | AC50 [4] [µM] | AC50 (D(1A) dopamine receptor) [µM] | AC50 [5] [µM] | AC50 [6] [µM] | AC50 [7] [µM] | AC50 (Progesterone receptor) [µM] |
| --- | --- | --- | --- | --- | --- | --- | --- | --- | --- | --- | --- |
| CC(C)(O/N=C(\C(=O)N[C@@H]1C(=O)N2C(C(=O)[O-])=C(C[n+]3ccccc3)CS[C@H]12)c1csc(N)n1)C(=O)O [CEFTAZIDIME] | > 300 | > 300 | > 300 | > 300 | > 30 | > 300 | > 300 | > 30 | > 300 | > 300 | > 300 |
| CCC(=O)O[C@]1(C(=O)CCl)[C@@H](C)C[C@H]2[C@@H]3CCC4=CC(=O)C=C[C@]4(C)[C@@]3(F)[C@@H](O)C[C@@]21C [CLOBETASOL PROPIONATE] | > 30 | > 30 | > 30 | > 30 | > 30 | > 30 | > 30 | > 30 | > 30 | > 30 | 0.053 |
| Cc1nc(Nc2ncc(C(=O)Nc3c(C)cccc3Cl)s2)cc(N2CCN(CCO)CC2)n1 [DASATINIB] | > 30 | > 30 | > 30 | 12.7 | > 10 | 6.3 | > 30 | > 30 | 25.3 | > 30 | > 30 |
| Cn1cc(C(=O)[C@@H]2CCc3nc[nH]c3C2)c2ccccc21 [RAMOSETRON] | > 30 | > 30 | > 30 | > 30 | > 30 | 20 | > 30 | > 30 | > 30 | > 30 | > 30 |
| CN(CCOc1ccc(CC2SC(=O)NC2=O)cc1)c1ccccn1 (stereo not given) [ROSIGLITAZONE] | > 30 | > 30 | > 30 | > 30 | > 30 | 14 | > 30 | > 30 | > 30 | 18 | > 30 |
